Among the data in BindingDB's records for doi:10.1074/jbc.M113.487736 (Universität Duisburg-Essen, 2014) are IC50 values, retold here.

The target of assay [1] is T1, NAD-dependent protein deacetylase sirtuin-2 (Homo sapiens, UniProt Q8IXJ6).
T1 sequence (Q8IXJ6 whole entry): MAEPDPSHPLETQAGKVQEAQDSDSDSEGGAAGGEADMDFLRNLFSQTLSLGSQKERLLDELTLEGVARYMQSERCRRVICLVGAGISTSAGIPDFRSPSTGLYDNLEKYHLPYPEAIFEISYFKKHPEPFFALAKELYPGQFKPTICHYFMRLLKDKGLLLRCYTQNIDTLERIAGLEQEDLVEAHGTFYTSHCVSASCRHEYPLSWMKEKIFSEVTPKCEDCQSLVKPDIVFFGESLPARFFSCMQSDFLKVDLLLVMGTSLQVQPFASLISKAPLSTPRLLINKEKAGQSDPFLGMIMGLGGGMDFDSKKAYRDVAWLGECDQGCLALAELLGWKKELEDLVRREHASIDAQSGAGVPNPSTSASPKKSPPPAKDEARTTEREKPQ
The assay is described as follows: Fluorescence-Based Deacetylation Assay. Conditions: pH 8; 37 °C. Here is the method:
(§1) Deacetylation assays using Boc(Ac)Lys-7-amino-4-methyl-coumarin (MAL; Bachem, Bubendorf, Switzerland) as a substrate were performed in a volume of 20 μl in 384-well low volume plates (Eppendorf) in a reaction buffer containing 25 mM Tris-HCl (pH 8.0), 137 mM NaCl, 1 mM MgCl2, 2.7 mM KCl, 1 mg/ml BSA, and 1mM DTT. Enzymes were added at different concentrations to wells in a volume of 10 μl and were preincubated with inhibitors (volume 1 μl, diluted in dimethyl sulfoxide) or with dimethyl sulfoxide as a control for 10 min at room temperature. Subsequently, 10 μl 2× concentrated substrate solution containing 200 μM MAL and 2 mM NAD+ was added to initiate the reaction, which was incubated at 37 °C for 4 h. This allowed for ~50% deacetylation of MAL. After incubation, 20 μl of trypsin solution (0.5 mg/ml) was added, and the trypsin cleavage reaction was allowed to proceed at 37 °C for 1 h. Fluorescence readings were obtained using a fluorescence reader(GENiosPro TECAN), with the excitation wavelength set to 360 nm and the emission set to 465 nm.

In assay [2] the target is T2, NAD-dependent protein deacetylase sirtuin-1 (Homo sapiens, UniProt Q96EB6).
T2 sequence (Q96EB6 whole entry): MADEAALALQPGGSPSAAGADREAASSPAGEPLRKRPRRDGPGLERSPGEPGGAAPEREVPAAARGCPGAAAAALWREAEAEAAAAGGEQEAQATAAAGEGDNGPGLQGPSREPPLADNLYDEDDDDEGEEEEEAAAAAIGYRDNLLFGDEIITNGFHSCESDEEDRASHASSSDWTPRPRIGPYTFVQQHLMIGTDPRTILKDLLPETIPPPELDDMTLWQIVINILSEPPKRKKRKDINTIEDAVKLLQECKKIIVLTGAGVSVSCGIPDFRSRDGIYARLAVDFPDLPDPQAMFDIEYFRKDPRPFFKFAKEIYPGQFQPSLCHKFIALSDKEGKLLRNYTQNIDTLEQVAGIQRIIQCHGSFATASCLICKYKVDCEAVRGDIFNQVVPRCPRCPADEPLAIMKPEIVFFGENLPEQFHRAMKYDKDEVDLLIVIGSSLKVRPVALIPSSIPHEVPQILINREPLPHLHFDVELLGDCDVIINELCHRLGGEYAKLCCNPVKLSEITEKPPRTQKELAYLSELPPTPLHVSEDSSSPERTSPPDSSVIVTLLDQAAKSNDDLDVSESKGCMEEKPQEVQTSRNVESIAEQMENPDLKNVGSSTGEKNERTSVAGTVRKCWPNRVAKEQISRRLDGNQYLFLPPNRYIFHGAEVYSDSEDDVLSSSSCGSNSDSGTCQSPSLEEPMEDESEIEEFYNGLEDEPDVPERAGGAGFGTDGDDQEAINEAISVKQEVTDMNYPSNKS
As to the kind of experiment: Fluorescence-Based Deacetylation Assay. Particulars: pH 8; 37 °C. Here is the method:
as §1

By IC50 is commonly meant the midpoint of a concentration-inhibition curve. A low value points to higher potency.

With `O=C(NCc1cccnc1)c1ccc2c(c1)C1C3CCC(C3)C1C(c1ccccc1)N2` (stereo not given) [AEM2], the values for the IC50 in assay [1] and in assay [2] were 3.8 µM and above 100 µM, respectively.

With `COCCCNC(=O)c1ccc2c(c1)C1C3CCC(C3)C1C(c1ccccc1)N2` (stereo not given) [AEM1 derivative, 1], the IC50 in assay [1] came to 18.7 µM.

On to `NC(=O)c1ccc2c(c1)C1C3CCC(C3)C1C(c1ccccc1)N2` (stereo not given) [AEM1], for which the IC50 in assay [1] is 18.5 µM; in assay [2], 118 µM.
